Laboratory results published in ChEMBL document CHEMBL1151728 (J Med Chem, 2008).
Activity calls are given as the source filed them. The calls are words filed in the database; no cut-off is given here.

Key:
[1] = tested on: Rattus norvegicus; assay: Effect on scopolamine-induced memory impairment in iv dosed Wistar rat assessed as decrease in time spent for exploration of the bait at the end of the eight-arm radial maze for 5 days; assay type: functional, organism-based
[2] = tested on: Rattus norvegicus; assay: Effect on scopolamine-induced memory impairment in iv dosed Wistar assessed as decrease in number of errors during exploration of the bait at the end of the eight-arm radial maze for 5 days; assay type: functional, organism-based
[3] = organism: Rattus norvegicus; assay: Hepatotoxicity in Wistar rat liver assessed as histopathological changes; assay type: toxicity, organism-based; conditions: in vivo
[4] = target: Acetylcholinesterase (Electrophorus electricus, UniProt O42275)
Chain of Acetylcholinesterase (O42275 whole entry): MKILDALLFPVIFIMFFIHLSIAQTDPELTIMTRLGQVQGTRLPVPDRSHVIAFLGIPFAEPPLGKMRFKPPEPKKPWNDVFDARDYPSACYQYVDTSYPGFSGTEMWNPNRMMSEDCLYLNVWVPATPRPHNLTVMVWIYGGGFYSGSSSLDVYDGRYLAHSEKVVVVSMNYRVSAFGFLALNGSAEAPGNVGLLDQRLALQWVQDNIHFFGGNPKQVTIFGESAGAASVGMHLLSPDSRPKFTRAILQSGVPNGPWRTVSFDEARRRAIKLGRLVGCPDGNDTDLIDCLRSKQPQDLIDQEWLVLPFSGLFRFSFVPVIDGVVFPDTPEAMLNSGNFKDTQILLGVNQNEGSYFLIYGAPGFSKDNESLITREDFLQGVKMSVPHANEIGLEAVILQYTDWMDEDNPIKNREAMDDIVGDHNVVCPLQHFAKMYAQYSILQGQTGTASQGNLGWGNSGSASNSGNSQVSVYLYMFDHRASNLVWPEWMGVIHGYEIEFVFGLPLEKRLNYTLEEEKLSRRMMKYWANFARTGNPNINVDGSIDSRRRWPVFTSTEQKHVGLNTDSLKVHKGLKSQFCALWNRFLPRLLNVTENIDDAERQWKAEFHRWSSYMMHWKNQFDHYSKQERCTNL
Description: Inhibition of Electric eel AChE

[5] = target: Butyrylcholinesterase (Equus caballus, UniProt Q9N1N9)
Chain of Butyrylcholinesterase (Q9N1N9 whole entry): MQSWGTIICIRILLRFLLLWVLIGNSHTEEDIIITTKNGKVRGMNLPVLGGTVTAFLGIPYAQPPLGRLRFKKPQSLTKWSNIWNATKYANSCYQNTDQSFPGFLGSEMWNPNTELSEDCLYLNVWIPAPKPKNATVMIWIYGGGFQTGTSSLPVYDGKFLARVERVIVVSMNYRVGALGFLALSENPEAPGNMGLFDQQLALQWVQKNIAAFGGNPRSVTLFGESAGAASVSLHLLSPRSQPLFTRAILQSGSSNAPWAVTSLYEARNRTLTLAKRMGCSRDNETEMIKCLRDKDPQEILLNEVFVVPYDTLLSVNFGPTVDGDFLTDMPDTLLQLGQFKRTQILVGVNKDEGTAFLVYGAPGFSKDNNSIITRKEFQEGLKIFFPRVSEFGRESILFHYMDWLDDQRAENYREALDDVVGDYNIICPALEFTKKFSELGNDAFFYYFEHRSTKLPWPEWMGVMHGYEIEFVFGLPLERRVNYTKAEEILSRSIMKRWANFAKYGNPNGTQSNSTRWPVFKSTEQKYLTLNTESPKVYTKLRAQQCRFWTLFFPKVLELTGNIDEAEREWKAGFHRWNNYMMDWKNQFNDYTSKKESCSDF
Description: Inhibition of BuChE from equine serum

SMILES | Activity [1] | Activity [2] | Activity [3] | IC50 [4] [nM] | IC50 [5] [nM]
O=[N+]([O-])OCCCNCCCCNc1c2c(nc3ccccc13)CCCC2 | Active | Active | Non-toxic | 5.6 | 9.9
O=[N+]([O-])OCCNCCNc1c2c(nc3ccccc13)CCCC2 | Active | Active | – | 9.1 | 7.3
O=[N+]([O-])OCCCNCCCCCNc1c2c(nc3ccccc13)CCCC2 | – | – | – | 15.4 | 14.3
O=[N+]([O-])OCCCNCCNc1c2c(nc3ccccc13)CCCC2 | – | – | – | 13 | 18.1
CCCNCCCCNc1c2c(nc3ccccc13)CCCC2 | inactive | inactive | – | 23.4 | 7.2
O=[N+]([O-])OCCCCCCNCCCCCCCCNc1c2c(nc3ccccc13)CCCC2 | – | – | – | 19.6 | 12.9
O=[N+]([O-])OCCNCCCCCCCCNc1c2c(nc3ccccc13)CCCC2 | – | – | – | 7.7 | 17
O=C(CO[N+](=O)[O-])NCCCNc1c2c(nc3ccccc13)CCCC2 | Active | Active | – | 28.2 | 13.5
O=[N+]([O-])OCCNCCCCCNc1c2c(nc3ccccc13)CCCC2 | – | – | – | 21.6 | 13.3
O=[N+]([O-])OCCCNCCCCCCCCNc1c2c(nc3ccccc13)CCCC2 | – | – | – | 17.1 | 14.8
